Experiments:
[1] = Drug uptake in anesthetized cynomolgus monkey brain frontal lobe after 195 mins postinjection; format: ADME, organism-based, Macaca fascicularis; conditions: in vivo, 3.25 h
Pons [2] = test: Drug uptake in anesthetized cynomolgus monkey brain pons after 65 mins postinjection; format: ADME, organism-based, Macaca fascicularis; conditions: in vivo
[3] = Drug uptake in anesthetized cynomolgus monkey brain occipital lobe after 215 mins postinjection; format: ADME, organism-based, Macaca fascicularis; conditions: in vivo
[4] = Drug uptake in anesthetized cynomolgus monkey brain occipital lobe after 18.5 mins postinjection; format: ADME, organism-based, Macaca fascicularis; conditions: in vivo
Thalamus [5] = test: Drug uptake in anesthetized cynomolgus monkey brain thalamus after 4.5 mins postinjection; format: ADME, organism-based, Macaca fascicularis; design: unit not given here; conditions: in vivo, 0.075 h
Pons [6] = test: Drug uptake in anesthetized cynomolgus monkey brain pons after 185 mins postinjection; format: ADME, organism-based, Macaca fascicularis; conditions: in vivo
[7] = Drug uptake in anesthetized cynomolgus monkey brain cerebellum after 65 mins postinjection; format: ADME, organism-based, Macaca fascicularis; conditions: in vivo
Midbrain [8] = test: Drug uptake in anesthetized cynomolgus monkey brain midbrain after 145 mins postinjection; format: ADME, organism-based, Macaca fascicularis; conditions: in vivo
Medulla [9] = test: Drug uptake in anesthetized cynomolgus monkey brain medulla after 85 mins postinjection; format: ADME, organism-based, Macaca fascicularis; conditions: in vivo
[10] = Ratio of drug uptake in thalamus to cerebellum in anesthetized cynomolgus monkey after 9.5 mins postinjection; format: ADME, organism-based, Macaca fascicularis; conditions: in vivo
Caudate [11] = test: Drug uptake in anesthetized cynomolgus monkey brain caudate after 95 mins postinjection; format: ADME, organism-based, Macaca fascicularis, Caudate nucleus; conditions: in vivo
Pons [12] = test: Drug uptake in anesthetized cynomolgus monkey brain pons after 27.5 mins postinjection; format: ADME, organism-based, Macaca fascicularis; conditions: in vivo
Pons [13] = test: Drug uptake in anesthetized cynomolgus monkey brain pons after 15.5 mins postinjection; format: ADME, organism-based, Macaca fascicularis; conditions: in vivo
Putamen [14] = test: Drug uptake in anesthetized cynomolgus monkey brain putamen after 27.5 mins postinjection; format: ADME, organism-based, Macaca fascicularis; design: unit not given here; conditions: in vivo
Midbrain [15] = test: Drug uptake in anesthetized cynomolgus monkey brain midbrain after 105 mins postinjection; format: ADME, organism-based, Macaca fascicularis; design: unit not given here; conditions: in vivo, 1.75 h
Putamen [16] = test: Drug uptake in anesthetized cynomolgus monkey brain putamen after 0.5 mins postinjection; format: ADME, organism-based, Macaca fascicularis; conditions: in vivo
Thalamus [17] = test: Drug uptake in anesthetized cynomolgus monkey brain thalamus after 6.5 mins postinjection; format: ADME, organism-based, Macaca fascicularis; design: unit not given here; conditions: in vivo
Midbrain [18] = test: Drug uptake in anesthetized cynomolgus monkey brain midbrain after 85 mins postinjection; format: ADME, organism-based, Macaca fascicularis; design: unit not given here; conditions: in vivo
Thalamus [19] = test: Drug uptake in anesthetized cynomolgus monkey brain thalamus after 165 mins postinjection; format: ADME, organism-based, Macaca fascicularis; design: unit not given here; conditions: in vivo, 2.75 h
[20] = Drug uptake in anesthetized cynomolgus monkey brain occipital lobe after 155 mins postinjection; format: ADME, organism-based, Macaca fascicularis; conditions: in vivo
[21] = Ratio of drug uptake in caudate to cerebellum in anesthetized cynomolgus monkey after 18.5 mins postinjection; format: ADME, organism-based, Macaca fascicularis; conditions: in vivo
Midbrain [22] = test: Drug uptake in anesthetized cynomolgus monkey brain midbrain after 125 mins postinjection; format: ADME, organism-based, Macaca fascicularis; design: unit not given here; conditions: in vivo
Midbrain [23] = test: Drug uptake in anesthetized cynomolgus monkey brain midbrain after 115 mins postinjection; format: ADME, organism-based, Macaca fascicularis; design: unit not given here; conditions: in vivo
Putamen [24] = test: Drug uptake in anesthetized cynomolgus monkey brain putamen after 125 mins postinjection; format: ADME, organism-based, Macaca fascicularis; conditions: in vivo
Caudate [25] = test: Drug uptake in anesthetized cynomolgus monkey brain caudate after 195 mins postinjection; format: ADME, organism-based, Macaca fascicularis, Caudate nucleus; conditions: in vivo, 3.25 h
Midbrain [26] = test: Drug uptake in anesthetized cynomolgus monkey brain midbrain after 135 mins postinjection; format: ADME, organism-based, Macaca fascicularis; conditions: in vivo, 2.25 h
Putamen [27] = test: Drug uptake in anesthetized cynomolgus monkey brain putamen after 6.5 mins postinjection; format: ADME, organism-based, Macaca fascicularis; design: unit not given here; conditions: in vivo
Putamen [28] = test: Drug uptake in anesthetized cynomolgus monkey brain putamen after 175 mins postinjection; format: ADME, organism-based, Macaca fascicularis; conditions: in vivo
Midbrain [29] = test: Drug uptake in anesthetized cynomolgus monkey brain midbrain after 12.5 mins postinjection; format: ADME, organism-based, Macaca fascicularis; design: unit not given here; conditions: in vivo
Thalamus [30] = test: Drug uptake in anesthetized cynomolgus monkey brain thalamus after 1.5 mins postinjection; format: ADME, organism-based, Macaca fascicularis; conditions: in vivo, 0.025 h
Midbrain [31] = test: Drug uptake in anesthetized cynomolgus monkey brain midbrain after 205 mins postinjection; format: ADME, organism-based, Macaca fascicularis; conditions: in vivo
Putamen [32] = test: Drug uptake in anesthetized cynomolgus monkey brain putamen after 85 mins postinjection; format: ADME, organism-based, Macaca fascicularis; design: unit not given here; conditions: in vivo
Caudate [33] = test: Drug uptake in anesthetized cynomolgus monkey brain caudate after 6.5 mins postinjection; format: ADME, organism-based, Macaca fascicularis, Caudate nucleus; conditions: in vivo
Pons [34] = test: Drug uptake in anesthetized cynomolgus monkey brain pons after 3.5 mins postinjection; format: ADME, organism-based, Macaca fascicularis; conditions: in vivo
[35] = Ratio of drug uptake in pons to cerebellum in anesthetized cynomolgus monkey after 1.5 mins postinjection; format: ADME, organism-based, Macaca fascicularis; conditions: in vivo, 0.025 h
Midbrain [36] = test: Drug uptake in anesthetized cynomolgus monkey brain midbrain after 235 mins postinjection; format: ADME, organism-based, Macaca fascicularis; conditions: in vivo
[37] = Ratio of drug uptake in occipital lobe to cerebellum in anesthetized cynomolgus monkey after 235 mins postinjection; format: ADME, organism-based, Macaca fascicularis; conditions: in vivo
Caudate [38] = test: Drug uptake in anesthetized cynomolgus monkey brain caudate after 225 mins postinjection; format: ADME, organism-based, Macaca fascicularis, Caudate nucleus; conditions: in vivo, 3.75 h
[39] = Drug uptake in anesthetized cynomolgus monkey brain frontal lobe after 45 mins postinjection; format: ADME, organism-based, Macaca fascicularis; conditions: in vivo, 0.75 h
Caudate [40] = test: Drug uptake in anesthetized cynomolgus monkey brain caudate after 1.5 mins postinjection; format: ADME, organism-based, Macaca fascicularis, Caudate nucleus; conditions: in vivo, 0.025 h
Pons [41] = test: Drug uptake in anesthetized cynomolgus monkey brain pons after 75 mins postinjection; format: ADME, organism-based, Macaca fascicularis; conditions: in vivo, 1.25 h
[42] = Ratio of drug uptake in occipital lobe to cerebellum in anesthetized cynomolgus monkey after 135 mins postinjection; format: ADME, organism-based, Macaca fascicularis; conditions: in vivo, 2.25 h
[43] = Ratio of drug uptake in pons to cerebellum in anesthetized cynomolgus monkey after 185 mins postinjection; format: ADME, organism-based, Macaca fascicularis; conditions: in vivo
Putamen [44] = test: Drug uptake in anesthetized cynomolgus monkey brain putamen after 115 mins postinjection; format: ADME, organism-based, Macaca fascicularis; design: unit not given here; conditions: in vivo
Medulla [45] = test: Drug uptake in anesthetized cynomolgus monkey brain medulla after 9.5 mins postinjection; format: ADME, organism-based, Macaca fascicularis; conditions: in vivo
Medulla [46] = test: Drug uptake in anesthetized cynomolgus monkey brain medulla after 115 mins postinjection; format: ADME, organism-based, Macaca fascicularis; conditions: in vivo
[47] = Ratio of drug uptake in midbrain to cerebellum in anesthetized cynomolgus monkey after 185 mins postinjection; format: ADME, organism-based, Macaca fascicularis; conditions: in vivo
Pons [48] = test: Drug uptake in anesthetized cynomolgus monkey brain pons after 195 mins postinjection; format: ADME, organism-based, Macaca fascicularis; conditions: in vivo, 3.25 h
Thalamus [49] = test: Drug uptake in anesthetized cynomolgus monkey brain thalamus after 35 mins postinjection; format: ADME, organism-based, Macaca fascicularis; design: unit not given here; conditions: in vivo
Medulla [50] = test: Drug uptake in anesthetized cynomolgus monkey brain medulla after 125 mins postinjection; format: ADME, organism-based, Macaca fascicularis; conditions: in vivo
[51] = Ratio of drug uptake in pons to cerebellum in anesthetized cynomolgus monkey after 175 mins postinjection; format: ADME, organism-based, Macaca fascicularis; conditions: in vivo
[52] = Ratio of drug uptake in medulla to cerebellum in anesthetized cynomolgus monkey after 95 mins postinjection; format: ADME, organism-based, Macaca fascicularis; conditions: in vivo
Putamen [53] = test: Drug uptake in anesthetized cynomolgus monkey brain putamen after 155 mins postinjection; format: ADME, organism-based, Macaca fascicularis; conditions: in vivo
[54] = Ratio of drug uptake in pons to cerebellum in anesthetized cynomolgus monkey after 85 mins postinjection; format: ADME, organism-based, Macaca fascicularis; conditions: in vivo
[55] = Ratio of drug uptake in putamen to cerebellum in anesthetized cynomolgus monkey after 165 mins postinjection; format: ADME, organism-based, Macaca fascicularis; conditions: in vivo, 2.75 h
[56] = Ratio of drug uptake in thalamus to cerebellum in anesthetized cynomolgus monkey after 115 mins postinjection; format: ADME, organism-based, Macaca fascicularis; conditions: in vivo

`O=C(OCC[18F])C1C2CCC(CC1c1ccc(/C=C\I)cc1)N2` (stereo unspecified) showed a Drug uptake [1] of 1.7, a Drug uptake (Pons [2]) of 3.35 and a Drug uptake [3] of 1.68. The Drug uptake [4] was 1.81, the Drug uptake (Thalamus [5]) was 1.21 and the Drug uptake (Pons [6]) was 3.44. The Drug uptake [7] was 2.44, the Drug uptake (Midbrain [8]) was 4.65 and the Drug uptake (Medulla [9]) was 3.91. The Ratio [10] was 1, the Drug uptake (Caudate [11]) was 3.05 and the Drug uptake (Pons [12]) was 2.58. The Drug uptake (Pons [13]) was 2.14, the Drug uptake (Putamen [14]) was 3.38 and the Drug uptake (Midbrain [15]) was 4.55. It also gave a Drug uptake (Putamen [16]) of 0, a Drug uptake (Thalamus [17]) of 1.7 and a Drug uptake (Midbrain [18]) of 4.42. It also gave a Drug uptake (Thalamus [19]) of 3.88, a Drug uptake [20] of 2.02 and a Ratio [21] of 0.7. For the same molecule, the Drug uptake (Midbrain [22]) was 4.62, the Drug uptake (Midbrain [23]) was 4.5 and the Drug uptake (Putamen [24]) was 4.34. The Drug uptake (Caudate [25]) was 2.85, the Drug uptake (Midbrain [26]) was 4.7 and the Drug uptake (Putamen [27]) was 1.89. It also gave a Drug uptake (Putamen [28]) of 3.1, a Drug uptake (Midbrain [29]) of 2.38 and a Drug uptake (Thalamus [30]) of 0.11. It also gave a Drug uptake (Midbrain [31]) of 4.57, a Drug uptake (Putamen [32]) of 4.32 and a Drug uptake (Caudate [33]) of 1.13. It also gave a Drug uptake (Pons [34]) of 0.67, a Ratio [35] of 0.6 and a Drug uptake (Midbrain [36]) of 4.44. It also gave a Ratio [37] of 1.6, a Drug uptake (Caudate [38]) of 2.68 and a Drug uptake [39] of 1.95. It also gave a Drug uptake (Caudate [40]) of 0.07, a Drug uptake (Pons [41]) of 3.39 and a Ratio [42] of 1.3. The Ratio [43] was 2.6, the Drug uptake (Putamen [44]) was 4.34 and the Drug uptake (Medulla [45]) was 2.45. For the same molecule, the Drug uptake (Medulla [46]) was 3.8, the Ratio [47] was 3.5 and the Drug uptake (Pons [48]) was 3.42. For the same molecule, the Drug uptake (Thalamus [49]) was 3.31, the Drug uptake (Medulla [50]) was 3.81 and the Ratio [51] was 2.7. It also gave a Ratio [52] of 1.8.

With `O=C(OCC[18F])C1C2CCC(CC1c1cccc(/C=C\I)c1)N2` (stereo unspecified) the Drug uptake (Pons [2]) was 3.2, the Drug uptake [3] was 1.28 and the Drug uptake [4] was 2.84. It also gave a Drug uptake (Thalamus [5]) of 1.57, a Drug uptake [7] of 3.23 and a Drug uptake (Midbrain [8]) of 3.85. The Drug uptake (Medulla [9]) was 3.75, the Ratio [10] was 0.9 and the Drug uptake (Putamen [53]) was 3.13. It also gave a Drug uptake (Caudate [11]) of 3.39, a Drug uptake (Pons [12]) of 3.21 and a Drug uptake (Pons [13]) of 2.82. For the same molecule, the Ratio [54] was 1.1, the Drug uptake (Putamen [14]) was 4.16 and the Drug uptake (Midbrain [15]) was 4.34. The Drug uptake (Putamen [16]) was 0, the Drug uptake (Thalamus [17]) was 2.49 and the Drug uptake (Midbrain [18]) was 4.67. It also gave a Drug uptake (Thalamus [19]) of 2.91, a Drug uptake [20] of 1.63 and a Drug uptake (Midbrain [22]) of 4.08. The Drug uptake (Midbrain [23]) was 4.18, the Drug uptake (Putamen [24]) was 3.58 and the Drug uptake (Midbrain [26]) was 3.97. The Drug uptake (Putamen [27]) was 2.54, the Drug uptake (Putamen [28]) was 2.93 and the Drug uptake (Midbrain [29]) was 3.95. It also gave a Drug uptake (Thalamus [30]) of 0.09, a Drug uptake (Putamen [32]) of 4.16 and a Drug uptake (Caudate [33]) of 2.02. It also gave a Drug uptake (Pons [34]) of 0.77, a Drug uptake (Midbrain [36]) of 2.94 and a Ratio [37] of 0.9. For the same molecule, the Drug uptake (Caudate [38]) was 2.02, the Drug uptake [39] was 2.95 and the Drug uptake (Caudate [40]) was 0.08. For the same molecule, the Drug uptake (Pons [41]) was 3.21, the Drug uptake (Putamen [44]) was 3.74 and the Drug uptake (Medulla [45]) was 3.15. The Drug uptake (Medulla [46]) was 3.43, the Drug uptake (Thalamus [49]) was 4.2 and the Ratio [55] was 1.8. The Drug uptake (Medulla [50]) was 3.27 and the Ratio [56] was 1.7.
